The target of the assay is T1, LSD1 (Homo sapiens, UniProt O60341).
T1 construct: made in house; host or cells: Escherichia coli Rosetta 2 (pET15b)
Put plainly: HRP-coupled fluorescence LSD1 demethylation activity and inhibition assay, substrate H3_1-21 K4(Me). The conditions noted are these: for mode of inhibition / inhibition of LSD1 (in words): enzyme activity assay; for mode of inhibition: inhibition kinetics; for Km: Tris buffer pH 8.0. Format: biochemical.

[1] abbreviates: 100 μM, supplement sheet SMILES and Activity, read-out: Inhibition at 100 μM (%).
The mark [2] stands for this setting: read-out: % inhibition at 100 μM.
Where [3] appears, read: supplement sheet SMILES and Activity, read-out: IC50.

Like-named read-outs stand apart in the source and are kept apart here. Bridge positions count the residues as written; N and C are the ends. Square brackets hold non-standard residues; d marks the D form. Peptide text beside a SMILES is read from it. Cit = NC(=O)NCCC[C@H](N)C(=O)O A value given as a limit tells only on which side of the number the result lay.

For the molecule `CSCC[C@@H]1NC(=O)[C@H](NC(=O)[C@H](CCCNC(=N)N)NC(=O)[C@H](C)N)CCC/C=C\CCC[C@@H](C(=O)N[C@@H](C)C(=O)N[C@@H](CCCNC(=N)N)C(=O)N[C@@H](CCCCN)C(=O)N[C@@H](CO)C(=O)N[C@H](C(N)=O)[C@@H](C)O)NC(=O)[C@H](CCC(N)=O)NC1=O` (relative stereo) [Peptide 24, AR*G^penMQG^penARKST-NH2], the mode of inhibition result is recorded as “competitive inhibitor”. Moreover, the inhibition at 100 µM under setting [1] came out at 95%. The inhibition at 100 µM under setting [2] turned out to be 95%.
Regarding `CSCC[C@@H]1NC(=O)[C@H](NC(=O)[C@H](CCCNC(=N)N)NC(=O)[C@H](C)N)CCC/C=C\CCC[C@H](C(=O)N[C@@H](C)C(=O)N[C@@H](CCCNC(=N)N)C(=O)N[C@@H](CCCCN)C(=O)N[C@@H](CO)C(=O)N[C@H](C(N)=O)[C@@H](C)O)NC(=O)[C@H](CCC(N)=O)NC1=O` (relative stereo) [Peptide 26, AR*G^penMQ*G^penARKST-NH2], the inhibition at 100 µM is 100% under setting [1] and 90% under setting [2].
`CSCC[C@@H]1NC(=O)[C@H](NC(=O)[C@H](CCCNC(=N)N)NC(=O)[C@H](C)N)CCCCNC(=O)CC[C@@H](C(=O)N[C@@H](C)C(=O)N[C@@H](CCCNC(=N)N)C(=O)N[C@@H](CCCCN)C(=O)N[C@@H](CO)C(=O)N[C@H](C(N)=O)[C@@H](C)O)NC(=O)[C@H](CCC(N)=O)NC1=O` (relative stereo) [Peptide 31]: the Ki was found to be 2.3 µM and the mode of inhibition result is given as “competitive inhibitor”. In addition, the inhibition at 100 µM under setting [1] was 100%. In addition, the inhibition at 100 µM under setting [2] turned out to be 100%. For the same molecule, the IC50 under setting [3] was found to be 5.3 µM.
For `CSCC[C@@H]1NC(=O)[C@H](NC(=O)[C@H](CCCNC(=N)N)NC(=O)[C@H](C)N)CCC(=O)NCCCC[C@@H](C(=O)N[C@@H](C)C(=O)N[C@@H](CCCNC(=N)N)C(=O)N[C@@H](CCCCN)C(=O)N[C@@H](CO)C(=O)N[C@H](C(N)=O)[C@@H](C)O)NC(=O)[C@H](CCC(N)=O)NC1=O` (relative stereo) [Peptide 32], under setting [2], the inhibition at 100 µM was below 20%. Further, the Ki (read-out: Ki) is above 100 µM.
For the molecule `C=CC[C@H](NC(=O)[C@H](CCCNC(=N)N)NC(=O)[C@@H](N)CC=C)C(=O)N[C@@H](CCSC)C(=O)N[C@@H](CCC(N)=O)C(=O)N[C@H](C(=O)N[C@@H](C)C(=O)N[C@@H](CCCNC(=N)N)C(=O)N[C@@H](CCCCN)C(=O)N[C@@H](CO)C(=O)N[C@H](C(N)=O)[C@@H](C)O)[C@@H](C)O` [Peptide 18], the IC50 was 5 µM. Besides, the inhibition at 100 µM under setting [1] is 98%. The inhibition at 100 µM under setting [2] came to 98%.
On to `CSCC[C@H](NC(=O)[C@@H]1C/C=C\C[C@H](N)C(=O)N[C@@H](CCCNC(=N)N)C(=O)N1)C(=O)N[C@@H](CCC(N)=O)C(=O)N[C@H](C(=O)N[C@@H](C)C(=O)N[C@@H](CCCNC(=N)N)C(=O)N[C@@H](CCCCN)C(=O)N[C@@H](CO)C(=O)N[C@H](C(N)=O)[C@@H](C)O)[C@@H](C)O` [Peptide 19], for which the inhibition at 100 µM reads like this: under setting [1], 100%; under setting [2], 100%.
`C=CC[C@H](NC(=O)[C@H](CCC(N)=O)NC(=O)[C@H](CCSC)NC(=O)[C@H](CC=C)NC(=O)[C@H](CCCNC(=N)N)NC(=O)[C@H](C)N)C(=O)N[C@@H](C)C(=O)N[C@@H](CCCNC(=N)N)C(=O)N[C@@H](CCCCN)C(=O)N[C@@H](CO)C(=O)N[C@H](C(N)=O)[C@@H](C)O` [Peptide 20, ARG^alyMQG^alyARKST-NH2]: the inhibition at 100 µM under setting [1] worked out at 95% and the inhibition at 100 µM under setting [2] was 95%.
As for `C=CCCC[C@H](NC(=O)[C@H](CCC(N)=O)NC(=O)[C@H](CCSC)NC(=O)[C@H](CCCC=C)NC(=O)[C@H](CCCNC(=N)N)NC(=O)[C@H](C)N)C(=O)N[C@@H](C)C(=O)N[C@@H](CCCNC(=N)N)C(=O)N[C@@H](CCCCN)C(=O)N[C@@H](CO)C(=O)N[C@H](C(N)=O)[C@@H](C)O` [Peptide 22, ARG^penMQG^penARKST-NH2], the inhibition at 100 µM is, setting by setting: under setting [1], 100%; under setting [2], 100%.
Turning to `CSCC[C@@H]1NC(=O)[C@@H](NC(=O)[C@H](CCCNC(=N)N)NC(=O)[C@H](C)N)CCC/C=C\CCC[C@@H](C(=O)N[C@@H](C)C(=O)N[C@@H](CCCNC(=N)N)C(=O)N[C@@H](CCCCN)C(=O)N[C@@H](CO)C(=O)N[C@H](C(N)=O)[C@@H](C)O)NC(=O)[C@H](CCC(N)=O)NC1=O` [Peptide 23, ARG^penMQG^penARKST-NH2], the inhibition at 100 µM reads like this: under setting [1], 75%; under setting [2], 75%.
As to `CSCC[C@@H]1NC(=O)[C@@H](NC(=O)[C@H](CCCNC(=N)N)NC(=O)[C@H](C)N)CCC/C=C\CCC[C@H](C(=O)N[C@@H](C)C(=O)N[C@@H](CCCNC(=N)N)C(=O)N[C@@H](CCCCN)C(=O)N[C@@H](CO)C(=O)N[C@H](C(N)=O)[C@@H](C)O)NC(=O)[C@H](CCC(N)=O)NC1=O` [Peptide 25, ARG^penMQ*G^penARKST-NH2], the inhibition at 100 µM came to 95% under setting [1] and 95% under setting [2].
For the molecule `CSCC[C@@H]1NC(=O)[C@@H](NC(=O)[C@H](CCCNC(=N)N)NC(=O)[C@H](C)N)CCCCNC(=O)CC[C@@H](C(=O)N[C@@H](C)C(=O)N[C@@H](CCCNC(=N)N)C(=O)N[C@@H](CCCCN)C(=O)N[C@@H](CO)C(=O)N[C@H](C(N)=O)[C@@H](C)O)NC(=O)[C@H](CCC(N)=O)NC1=O` [Peptide 27], the inhibition at 100 µM is, setting by setting: under setting [1], 65%; under setting [2], 65%. Under “read-out: Ki”, the Ki was 31 µM. Moreover, the IC50 under setting [3] came to 62 µM.
`CSCC[C@@H]1NC(=O)[C@@H](NC(=O)[C@H](CCCNC(=N)N)NC(=O)[C@H](C)N)CCC(=O)NCCCC[C@@H](C(=O)N[C@@H](C)C(=O)N[C@@H](CCCNC(=N)N)C(=O)N[C@@H](CCCCN)C(=O)N[C@@H](CO)C(=O)N[C@H](C(N)=O)[C@@H](C)O)NC(=O)[C@H](CCC(N)=O)NC1=O` [Peptide 28]: affinity was put at a Ki of 4 µM and the mode of inhibition result is “competitive inhibitor”. The inhibition at 100 µM under setting [1] worked out at 98%. Further, under setting [2], the inhibition at 100 µM turned out to be 98%. Moreover, under setting [3], the IC50 was 12 µM.
As for `CSCC[C@@H]1NC(=O)[C@@H](NC(=O)[C@H](CCCNC(=N)N)NC(=O)[C@@H]2CCCN2)CCCCNC(=O)CC[C@@H](C(=O)N[C@@H](C)C(=O)N[C@@H](CCCNC(=N)N)C(=O)N[C@@H](CCCCN)C(=O)N[C@@H](CO)C(=O)N[C@H](C(N)=O)[C@@H](C)O)NC(=O)[C@H](CCC(N)=O)NC1=O` [Peptide 29] (H-PRKMQEARKST-NH2; lactam 3-6), the inhibition at 100 µM under setting [1] is 90% and the inhibition at 100 µM under setting [2] was 90%. Under “read-out: Ki”, the Ki turned out to be 7 µM. Moreover, under setting [3], the IC50 turned out to be 14 µM.
Regarding `CSCC[C@@H]1NC(=O)[C@@H](NC(=O)[C@H](CCCNC(=N)N)NC(=O)[C@@H]2CCCN2)CCC(=O)NCCCC[C@@H](C(=O)N[C@@H](C)C(=O)N[C@@H](CCCNC(=N)N)C(=O)N[C@@H](CCCCN)C(=O)N[C@@H](CO)C(=O)N[C@H](C(N)=O)[C@@H](C)O)NC(=O)[C@H](CCC(N)=O)NC1=O` [Peptide 30] (H-PREMQKARKST-NH2; lactam 3-6), the inhibition at 100 µM by setting is: under setting [1], 75%; under setting [2], 75%. Also, the Ki (read-out: Ki) stood at 22 µM. The IC50 under setting [3] stood at 44 µM.
Regarding `CSCC[C@@H]1NC(=O)[C@@H](NC(=O)[C@H](CCCNC(N)=O)NC(=O)[C@H](C)N)CCC(=O)NCCCC[C@@H](C(=O)N[C@@H](C)C(=O)N[C@@H](CCCNC(=N)N)C(=O)N[C@@H](CCCCN)C(=O)N[C@@H](CO)C(=O)N[C@H](C(N)=O)[C@@H](C)O)NC(=O)[C@H](CCC(N)=O)NC1=O` [Peptide 33] (H-A[Cit]EMQKARKST-NH2; lactam 3-6), the inhibition at 100 µM is, setting by setting: under setting [1], 97%; under setting [2], 97%. Also, the IC50 under setting [3] was 13 µM.
`CSCC[C@@H]1NC(=O)[C@@H](NC(=O)[C@H](CCCNC(=N)N)NC(=O)[C@H](C)N)CCC(=O)NCCCC[C@@H](C(=O)N[C@@H](C)C(=O)N[C@@H](CCCNC(N)=O)C(=O)N[C@@H](CCCCN)C(=O)N[C@@H](CO)C(=O)N[C@H](C(N)=O)[C@@H](C)O)NC(=O)[C@H](CCC(N)=O)NC1=O` [Peptide 34] (H-AREMQKA[Cit]KST-NH2; lactam 3-6) showed a Ki of 8 µM. Further, the inhibition at 100 µM under setting [1] came out at 97%. For the same molecule, under setting [2], the inhibition at 100 µM stood at 97%. Also, the IC50 under setting [3] stood at 14 µM.
For `CSCC[C@@H]1NC(=O)[C@@H](NC(=O)[C@H](CCCNC(=N)N)NC(=O)[C@H](C)N)CCCCn2cc(nn2)C[C@@H](C(=O)N[C@@H](C)C(=O)N[C@@H](CCCNC(=N)N)C(=O)N[C@@H](CCCCN)C(=O)N[C@@H](CO)C(=O)N[C@H](C(N)=O)[C@@H](C)O)NC(=O)[C@H](CCC(N)=O)NC1=O` [Peptide 35, ARK^azdMQG^prgARKST-NH2], the “inhibition of LSD1 (in words)” value is on record as “weak competitive inhibitors”. Besides, the inhibition at 100 µM under setting [2] is below 30%. Under “read-out: Ki”, the Ki was above 100 µM.
With `CSCC[C@@H]1NC(=O)[C@@H](NC(=O)[C@H](CCCNC(=N)N)NC(=O)[C@H](C)N)Cc2cn(nn2)CCCC[C@@H](C(=O)N[C@@H](C)C(=O)N[C@@H](CCCNC(=N)N)C(=O)N[C@@H](CCCCN)C(=O)N[C@@H](CO)C(=O)N[C@H](C(N)=O)[C@@H](C)O)NC(=O)[C@H](CCC(N)=O)NC1=O` [Peptide 36, ARG^prgMQK^azdARKST-NH2], the “inhibition of LSD1 (in words)” value is given as “weak competitive inhibitors”. Further, the inhibition at 100 µM under setting [1] was found to be 70%. Besides, the inhibition at 100 µM under setting [2] was 70%. Also, the Ki (read-out: Ki) was 30 µM. In addition, the IC50 under setting [3] amounted to 60 µM.
Turning to “H3_1-21 K4(Me): N-terminal 21 amino acids of histone H3, mono-N-methylated at Lys4; LSD1 substrate [reference compound]”, the kcat (substrate of LSD1, 50 mM NaCl) was 0.6 s^–1. The Km (substrate of LSD1, 50 mM NaCl) was found to be 20 µM; the Km (substrate of LSD1, 150 mM NaCl) stood at 80 µM; the Km (substrate of LSD1, without added NaCl) is 10 µM.

One may read the inhibition as the drop in the measured response relative to a control, in per cent. What is called Ki is a measure of affinity in units of concentration, obtained from inhibition or displacement. What is called IC50 is the concentration that inhibits the measured activity by half. In general, Km refers to the concentration of substrate that gives half-maximal velocity.

For the origin of these results see paper PMC7057333 (ACS Omega, 2020).
